Laboratory results as given in patent US6133313A, “Insecticidal avocadofurans and triolein” (The Regents of the University of California, priority 1998, dated 2000).
Entries after “also recorded” stand apart in the source; their conditions may differ.

Legend:
Assay type in all cases: in vivo, Spodoptera exigua
[1] = tested on: S. exigua larvae; experiment: growth inhibition and mortality of synthetic avocadofurans and triolein in diet bioassay; design: key to GI (growth index): growth index calculated per J. Chem. Ecol. 19:1109 (1993), imax = 3; conditions: for 7-d Instar / 7-d Larval Weight: mean ± SE; for mortality at 600 µg/g / mortality at 750 µg/g / mortality at 900 µg/g / mortality at 1050 µg/g / mortality at 1200 µg/g: Spodoptera exigua, feed or water, 168 h, 7 d; for LC50 (95% FL): in diet; for inhibition of larval growth / comparative toxicity and growth inhibition: in words; for Relative Growth Index (RGI) vs log concentration regression (FIG. 4): log (μg/g)
Procedure: S. exigua larvae were used in all experiments. Larvae were reared on artificial diet modified from U.S.D.A. Agric. Res. Serv., Prod. Res. Rep., 1208:1 (1969), and maintained at 28+2° C., 14:10; light:dark (L:D) photoperiod.
The colony was collected from Orange Co., Calif. and had new genetic material added within 12 months prior to the study. The age of the cohorts tested was standardized by using neonates within 12 hours of eclosion. All bioassays were maintained at 28+2° C. 75% relative humidity (RH), and at 14:10 (L:D) photoperiod with fluorescent lighting.
The insecticidal activity of the fractions was tested with artificial diet bioassays. Treated diets were prepared by transferring 750 μl of acetone solutions of each fraction (equivalent to 300 mg crude idioblast cell oil) into 50-ml polypropylene centrifuge tubes (Fisher, Pittsburgh Pa.), evaporating the acetone, adding 2 ml of 0.1% Tween-80 solution (Fisher), homogenizing with an ultrasonic homogenizer (Co le-Parmer, Chicago Ill.), and adding prepared diet to produce a final weight of 15 g containing the equivalent of 2% idioblast oil. The mixture was vortexed for 3 mm.
Control diet was prepared by mixing 2 ml of Tween solution and 13 g of artificial diet to produce a final weight of 15 g. Control and treated diets were poured into 24-well (15.9 mm diameter and 15.9 mm depth) bioassay trays (C-D International Inc., Pitman N.J.). One neonate was added per well, and trays were placed in an incubator under the previously described conditions. Twenty-four neonates were tested for each fraction and control. Mortality and larval weights were recorded after 7 days.
The effect of the synthetically produced avocado furan compounds (>95% purity) and commercially available triolein (Sigma, St. Louis, Mo.) were tested on larval growth and mortality of S exigua. Treated and control diet were prepared as previously described.
Six different compound concentrations, chosen on the basis of studies with the oil fractions, were evaluated for both 2-(pentadecyl)furan and 2-(heptadecyl)furan: 0 (control), 600, 750, 900, 1050, and 1200 μg/g. Also, six concentrations of triolein (subfraction 1-1-12) were tested: 0 (control), 7000, 8000, 9000, 10000, and 11000 μg/g.
Twenty-four neonates were used per treatment. Bioassays were conducted as described in Example 4, and replicated 4 times for each concentration (i.e., a total of 96 larvae were tested for each concentration). Larval weight, instar, and mortality were recorded after 7 days […].
(§1) EC (effective concentration) values were calculated by subtracting the mean larval weight for each treatment from the mean weight of the controls, and dividing by the mean weight of the controls. LC (lethal concentration) values were obtained using probit analysis as described in Probit Analysis (1971) Cambridge University Press, Cambridge, UK. GI (growth index) and RGI (relative growth index) values were calculated as described in J. Chem. Ecol., 19:1109 (1993), but using an imax of 3 (the stage attained by most control larvae after 7 d). Statistical comparisons were conducted using SuperAnova Abacus Concept Inc., Berkeley, Calif. (1989).

[2] = tested on: neonate S. exigua; experiment: individual toxicity of avocadofurans and triolein in artificial diet; conditions: for effect on pupal weight (FIG. 7) / larval developmental time from neonate to pupa (FIG. 8) / Relative Growth Index (RGI) (FIG. 10): in words; for Relative Growth Index (RGI) (FIG. 10): increasing concentrations
Procedure: In this study, individual activity of avocadofurans was investigated quantitatively. For this purpose, eight concentrations of the avocadofurans (1) and (4) and triolein (8) were tested. Results are seen in FIG. 6.
Following pilot studies, eight concentrations of each were tested: 0, 0.5, 1, 1.5, 2, 2.5, 3, and 3.5 μmoles g^~1 diet. Also, five concentrations of triolein were tested: 0; 1,000; 2,000; 3,000; and 4,000 μg g^~1 diet. Because triolein was not compared to a structurally similar compound, a more standard dietary formulation of μg g-^1 was used rather than ^~ moles g^-1 in all triolein-treated bioassays.
Treated and control diet were prepared as described above. For each concentration the compounds were dissolved in 10 ml of Tween solution and mixed using an ultrasonic homogenizer. Untreated diet was added to make a total of 100 g and then vortexed for 3 mm. Control diet was prepared by mixing 10 ml of the Tween solution with 90 g of artificial diet to produce a final weight of 100 g. Control and treated diets were poured into 30 ml plastic cups. One neonate was placed in each cup and cups were held in an incubator. Fifteen larvae were tested at each concentration, and assays were replicated 4 times (total of 60 larvae/treatment). For each diet treatment, 9-d larval instar and weight, pupal weights, times to pupation, and larval mortality were recorded.
as §1

[3] = tested on: S. exigua; experiment: synergistic/joint toxicity of avocadofuran and triolein combinations; conditions: for Mortality (%) using LC25 / Survival to pupation: in vivo; for Weight, 9-d larvae / Weight, Pupae: mean ± spread; for Developmental times: neonate-pupa, in d (unit assumed)
Text: The treatments were as follows: Control, 2-(pentadecyl)furan, 2-(heptadecyl)furan, triolein, individually, and 2-(pentadecyl)furan combined with 2-(heptadecyl)furan and triolein, 2-(pentadecyl)furan combined with triolein, and 2-(heptadecyl)furan combined with triolein. Because the combined LC25 s for both avocadofurans exceed their LC50 values, a concentration for each was adjusted so that when added it would approximate the value of the avocadofurans LC50 (see Table 2). These concentrations were used whenever both avocadofurans were combined in the same treatment. Treatments were replicated four times, with 15 larvae per replicate to a total of 60 larvae/treatment.
Joint effects were determined by testing all combinations of LC25 s (estimated from probit lines shown in Table 1) of the three compounds for toxicity to S. exigua. The treatments were: control, 2-(pentadecyl)furan, 2-(heptadecyl)furan, triolein, 2-(pentadecyl)furan+triolein, 2-(heptadecyl)furan+triolein, and 2-(pentadecyl)furan+2-(heptadecyl)furan+triolein. Because the combined LC25 s for both avocadofurans exceeded their LC50 values (due to a steep slope of their LC lines), a concentration for each was used so that when added together it would approximate the value of the avocadofurans LC50 (Table 1). These concentrations were used whenever both avocadofurans were combined in the same treatment.
Treatments were replicated four times, with 15 larvae per replicate (total of 60 larvae/treatment). Dietary treatment preparations and bioassay procedures were conducted as described in Example 4. For each diet treatment, 9-d larval instar and weight, pupal weights, times to pupation, and larval mortality were recorded.

[4] = lowest concentration vs controls

CCCCCCCCCCCCCCCc1ccco1 [2-(pentadecyl)furan (1), 2-(pentadecyl)furan]
GI (growth index) ([1]; 600 μg/g): 0.69
percent reduction in larval weight vs control ([1]; 600 μg/g): 72.89%
7-d Instar ([1]; 600 μg/g): 2.29 ± 0.07
7-d Larval Weight ([1]; 600 μg/g): 8.50 ± 0.95 mg
GI (growth index) ([1]; 750 μg/g): 0.55
percent reduction in larval weight vs control ([1]; 750 μg/g): 85.83%
7-d Instar ([1]; 750 μg/g): 2.04 ± 0.07
7-d Larval Weight ([1]; 750 μg/g): 4.44 ± 0.45 mg
GI (growth index) ([1]; 900 μg/g): 0.26
percent reduction in larval weight vs control ([1]; 900 μg/g): 90.35%
7-d Instar ([1]; 900 μg/g): 1.74 ± 0.07
7-d Larval Weight ([1]; 900 μg/g): 3.03 ± 0.35 mg
GI (growth index) ([1]; 1050 μg/g): 0.25
percent reduction in larval weight vs control ([1]; 1050 μg/g): 95.50%
7-d Instar ([1]; 1050 μg/g): 1.61 ± 0.07
7-d Larval Weight ([1]; 1050 μg/g): 1.41 ± 0.15 mg
GI (growth index) ([1]; 1200 μg/g): 0.15
percent reduction in larval weight vs control ([1]; 1200 μg/g): 95.78%
7-d Instar ([1]; 1200 μg/g): 1.56 ± 0.09
7-d Larval Weight ([1]; 1200 μg/g): 1.32 ± 0.19 mg
mortality at 600 µg/g ([1]; 600 μg/g): 9.37%
mortality at 750 µg/g ([1]; 750 μg/g): 18.8%
mortality at 900 µg/g ([1]; 900 μg/g): 32.3%
mortality at 1050 µg/g ([1]; 1050 μg/g): 54.2%
mortality at 1200 µg/g ([1]; 1200 μg/g): 71.9%
reduction of larval development ([1]; concentrations above 600 μg/g): > 70%
LC50 (95% FL) [1]: 1031 µg/g
inhibition of larval growth [1]: significantly inhibited larval growth
comparative toxicity and growth inhibition ([1]; listed as 1): more toxic and growth inhibitory to S. exigua than either of the unsaturated compounds (2) and (6); also recorded: the most toxic
comparative toxicity and growth inhibition ([1]; listed as 2-(pentadecyl)furan): most active of the two major compounds from that subfraction
Relative Growth Index (RGI) vs log concentration regression (FIG. 4) [1]: y=5.66-1.79*log(x), r^2 =0.94
growth inhibition (FIG. 6A) ([2]; 1.5 μmoles g^-1 or higher, 9 d): more than 50%
LC25 (95% FL) ([2]; avocadofurans, larval stage): 1.76(1.55-1.93) μmoles g^-1 of diet
LC50 (95% FL) ([2]; avocadofurans, larval stage): 2.24(2.08-2.39) μmoles g^-1 of diet
effect on pupal weight (FIG. 7) [2]: significantly reduced
larval developmental time from neonate to pupa (FIG. 8) [2]: significantly prolonged
Relative Growth Index (RGI) (FIG. 10) [2]: decreased with increasing concentrations
LC50 ([2]; larval stage): 2.2 μmoles g^-1 diet
concentration significantly reducing 9-day larval weight (FIG. 6A) [2, 4]: ≥ 1.5 µmol/g
concentration significantly reducing pupal weight (FIG. 7A) [2, 4]: ≥ 3 µmol/g
Mortality (%) using LC25 [3]: 36.7%
Survival to pupation [3]: 63.3%
Weight, 9-d larvae [3]: 22.4 ± 2.9 mg
Weight, Pupae [3]: 104.3 ± 3.2 mg
Developmental times [3]: 19.8 ± 0.7

CCCCCCCCCCCCCCCCCc1ccco1 [2-(heptadecyl)furan (4), 2-(heptadecyl)furan]
GI (growth index) ([1]; 600 μg/g): 0.73
percent reduction in larval weight vs control ([1]; 600 μg/g): 79.46%
7-d Instar ([1]; 600 μg/g): 2.25 ± 0.06
7-d Larval Weight ([1]; 600 μg/g): 6.44 ± 0.44 mg
GI (growth index) ([1]; 750 μg/g): 0.62
percent reduction in larval weight vs control ([1]; 750 μg/g): 87.14%
7-d Instar ([1]; 750 μg/g): 1.95 ± 0.06
7-d Larval Weight ([1]; 750 μg/g): 4.03 ± 0.44 mg
GI (growth index) ([1]; 900 μg/g): 0.56
percent reduction in larval weight vs control ([1]; 900 μg/g): 89.84%
7-d Instar ([1]; 900 μg/g): 1.87 ± 0.06
7-d Larval Weight ([1]; 900 μg/g): 3.19 ± 0.30 mg
GI (growth index) ([1]; 1050 μg/g): 0.46
percent reduction in larval weight vs control ([1]; 1050 μg/g): 93.55%
7-d Instar ([1]; 1050 μg/g): 1.65 ± 0.07
7-d Larval Weight ([1]; 1050 μg/g): 2.02 ± 0.16 mg
GI (growth index) ([1]; 1200 μg/g): 0.23
percent reduction in larval weight vs control ([1]; 1200 μg/g): 95.93%
7-d Instar ([1]; 1200 μg/g): 1.43 ± 0.08
7-d Larval Weight ([1]; 1200 μg/g): 1.28 ± 0.16 mg
mortality ([1]; 600 to 900 μg/g): < 15%
reduction of larval development and growth ([1]; 600 to 900 μg/g): > 75%
mortality at 600 µg/g ([1]; 600 μg/g): 2.08%
mortality at 750 µg/g ([1]; 750 μg/g): 4.2%
mortality at 900 µg/g ([1]; 900 μg/g): 10.4%
mortality at 1050 µg/g ([1]; 1050 μg/g): 16.7%
mortality at 1200 µg/g ([1]; 1200 μg/g): 54.2%
LC50 (95% FL) [1]: 1206 µg/g
comparative toxicity and growth inhibition [1]: more toxic and growth inhibitory to S. exigua than either of the unsaturated compounds (2) and (6)
inhibition of larval growth [1]: significantly inhibited larval growth
Relative Growth Index (RGI) vs log concentration regression (FIG. 4) [1]: y=4.82-1.47*log(x), r^2 =0.89
LC25 (95% FL) ([2]; avocadofurans, larval stage): 1.02(0.70-1.29) μmoles g^-1 of diet
effect on pupal weight (FIG. 7) [2]: significantly reduced
larval developmental time from neonate to pupa (FIG. 8) [2]: significantly prolonged
Relative Growth Index (RGI) (FIG. 10) [2]: decreased with increasing concentrations
LC50 ([2]; larval stage): 2.1 μmoles g^-1 diet
concentration significantly reducing pupal weight (FIG. 7A) [2, 4]: ≥ 3 µmol/g
Mortality (%) using LC25 [3]: 23.3%
Survival to pupation [3]: 76.6%
Weight, 9-d larvae [3]: 54.2 ± 5.9 mg
Weight, Pupae [3]: 112.8 ± 2.6 mg
Developmental times [3]: 18.0
